Columns and labels:
[1] = Plasma curcumin concentration (AUC and Cmax) after administration to rats; format: in vivo
Description: The plasma curcumin concentration was measured by the following method using heparin plasma obtained by collecting about 0.2 mL of blood from the jugular vein of test animals (rats) without anesthesia at 0.25 hours, 0.5 hours, 1 hour, 2 hours, 4 hours, and/or 6 hours after start of administration.
To 20 μL of the collected plasma, 100 μL of 0.1 M acetate buffer (pH 5.0) and 10 μL of β-glucuronidase solution (about 68,000 units/mL) were added. The mixture was kept at 37° C. for 1 hour. Subsequently, 10 μL of 50% (v/v) methanol containing 20 ng/mL of Mepronil, an internal standard, and 0.5 mL of chloroform were added. The mixture was stirred with a vortex mixer for 1 minute and then mixed with an ultrasonic generator for 15 minutes to perform an extraction process. The extraction process liquid was separated into a chloroform layer and an aqueous layer by centrifugation (13,000×g, 5 min, room temperature). The separated aqueous layer was further subjected to an extraction process in which extraction was performed by adding chloroform in the same manner as described above. Next, the chloroform layer was collected and dried to solid by distilling the solvent off using a vacuum centrifugal concentrator, and 100 μL of 50% (v/v) methanol was added thereto, followed by centrifugation (13,000×g, 5 min, room temperature). The supernatant was then collected.
The plasma curcumin concentration was measured by analyzing 2 μL of the prepared supernatant using LC-MS/MS (available from Bruker). […]
The calibration curve used to quantitatively determine the curcumin content in the sample was obtained by performing measurement under the same conditions as described above using various standard solutions (curcumin concentration: 0.9 to 225 ng/mL) prepared by adding 10 μL of a 50% ethanol solution containing 20 ng/mL of Mepronil to 90 μL of a 50% (v/v) methanol solution (curcumin standard solution) containing 1.0, 2.0, 3.9, 7.8, 15.6, 31.3, 62.5, 125, or 250 ng/mL of curcumin.

[2] = normal conditions (temperature 20° C. to 35° C., humidity 40% to 70%) till 6 months; cited from earlier work

Cmax ([1]; rat, oral, plasma curcumin after β-glucuronidase treatment)	AUC ([1]; rat, oral, plasma curcumin after β-glucuronidase treatment, 0 to 6 hrs)	Cmax relative to Comparative Example 1 (value in parentheses) ([1]; ratio to commercial curcumin formulation (Comparative Example 1 = 1.0))	SMILES	Storage stability of sample stored in a container [2]
85 ng/mL	292 ng·h/mL	0.84 times	COc1cc(/C=C/C(=O)/C=C(O)/C=C/c2ccc(O)c(OC)c2)ccc1O [Comparative Example 2, curcumin]	–
–	–	–	COc1cc(/C=C/C(=O)/C=C(O)/C=C/c2ccc(O)c(OC)c2)ccc1O [amorphous curcumin, curcumin]	generally stable

Reference: US12605346B2, “Composition containing curcumin compound, and method for producing same” (THERABIOPHARMA INC., priority 2020, dated 2026)
